For 43 compounds, EC50 results are on record in patent US12522582B2 (Gilead Sciences, Inc., priority 2022, dated 2026).

In the assay the test system is HSV-2 virus (MS strain). In words: HSV-2 Cellomics Assay (immunofluorescence of HSV protein gD in infected ARPE-19 cells). Conditions: Human alphaherpesvirus 2, ARPE-19, 16 h.
[1] abbreviates: read-out: EC50-HSV2-10% Human Serum.

Where two headings read alike, the source gives them in different places. Some results are limits rather than exact numbers.

In general, EC50 refers to the concentration needed to bring the measured effect to its halfway point. With `CS(=N)(=O)c1cc2c(cc1F)CCN2C(=O)[C@@H]1Cc2ccc(-c3ccccn3)cc2C1` (mixture of isomers) [Example 39, (5-fluoro-1-((R)-5-(pyridin-2-yl)-2,3-dihydro-1H-indene-2-carbonyl)indolin-6-yl)(imino)(methyl)-λ^6-sulfanone], the EC50 runs as follows: under setting [1], 188 nM; (read-out: EC50-HSV2-FBS) 45 nM.

`CC1CN(C(=O)[C@H]2Cc3cc(-c4ccccn4)ccc3[C@@H]2C)c2cc(S(N)(=O)=O)c(F)cc21` (mixture of isomers) [Example 103, 5-fluoro-3-methyl-1-((1R,2S)-1-methyl-5-(pyridin-2-yl)-2,3-dihydro-1H-indene-2-carbonyl) indoline-6-sulfonamide]: the EC50 under setting [1] amounted to 221 nM and the EC50 (read-out: EC50-HSV2-FBS) came to 36 nM.

Consider `CCC1Cc2cc(F)c(S(=N)(=O)O)cc2N1C(=O)[C@@H]1Cc2ccc(-c3ccccn3)cc2C1` (mixture of isomers) [Example 112], for which the EC50 came out at 579 nM under setting [1] and 81 nM (read-out: EC50-HSV2-FBS).

For `C[C@@H]1Cc2ccc(S(N)(=O)=O)cc2N1C(=O)[C@H]1Cc2ccc(-c3ccccn3)cc2C1` (single isomer, unassigned) [Example 14], the 50% effective concentration (EC50) (read-out: EC50-HSV2-FBS) is 2480 nM.

With `C[C@H]1Cc2ccc(S(N)(=O)=O)cc2N1C(=O)[C@H]1Cc2ccc(-c3ccccn3)cc2C1` (single isomer, unassigned) [Example 17], where the note is “read-out: EC50-HSV2-FBS”, the EC50 worked out at 551 nM.

As for `C[S@@](=N)(=O)c1ccc2c(c1)N(C(=O)[C@@H]1Cc3ccc(-c4ccccn4)cc3C1)CC2` (single isomer, unassigned) [Example 31], the EC50 runs as follows: under setting [1], 9380 nM; (read-out: EC50-HSV2-FBS) 849 nM.

For the compound `C[C@@H]1CN(C(=O)[C@H]2Cc3cc(-c4ccccn4)ccc3[C@@H]2C)c2cc(S(N)(=O)=O)c(F)cc21` (single isomer, unassigned) [Example 105], the EC50 under setting [1] was determined as 251 nM and the EC50 (read-out: EC50-HSV2-FBS) is 45 nM.

For `Cc1c(S(N)(=O)=O)ccc2c1N(C(=O)C1Cc3ccc(-c4ccccn4)cc3C1)CC2` (stereo not drawn) [Example 1], the EC50 (read-out: EC50-HSV2-FBS) worked out at 721 nM.

Turning to `Cc1cc(S(N)(=O)=O)cc2c1CCN2C(=O)C1Cc2ccc(-c3ccccn3)cc2C1` (stereo not drawn) [Example 2], the EC50 by setting is: under setting [1], 23600 nM; (read-out: EC50-HSV2-FBS) 65 nM.

Take `NS(=O)(=O)c1ccc2c(c1F)N(C(=O)C1Cc3ccc(-c4ccccn4)cc3C1)CC2` (stereo not drawn) [Example 4]: the EC50 is, setting by setting: under setting [1], no less than 25000 nM; (read-out: EC50-HSV2-FBS) 284 nM.

On to `NS(=O)(=O)c1cc(F)c2c(c1)N(C(=O)C1Cc3ccc(-c4ccccn4)cc3C1)CC2` (stereo not drawn) [Example 6], for which the EC50 reads like this: under setting [1], no less than 25000 nM; (read-out: EC50-HSV2-FBS) 72 nM.

Consider `NS(=O)(=O)c1cc(Cl)c2c(c1)N(C(=O)C1Cc3ccc(-c4ccccn4)cc3C1)CC2` (stereo not drawn) [Example 7], for which the EC50 under setting [1] was no less than 25000 nM and the concentration for a half-maximal effect (EC50) (read-out: EC50-HSV2-FBS) came out at 62 nM.

On to `NS(=O)(=O)c1ccc2c(c1)N(C(=O)C1Cc3cc(F)c(-c4ccccn4)cc3C1)CC2` (stereo not drawn) [Example 9], for which the EC50 is, setting by setting: under setting [1], 2600 nM; (read-out: EC50-HSV2-FBS) 105 nM.

As for `NS(=O)(=O)c1ccc2c(c1)N(C(=O)C1Cc3ccc(-c4ccccn4)c(F)c3C1)CC2` (stereo not drawn) [Example 10], the EC50 (read-out: EC50-HSV2-FBS) was 537 nM.

For the compound `NS(=O)(=O)c1ccc2c(c1)N(C(=O)C1Cc3ccc(-c4ccccn4)c(Cl)c3C1)CC2` (stereo not drawn) [Example 11], under “read-out: EC50-HSV2-FBS”, the EC50 stood at 7660 nM.

In the case of `NS(=O)(=O)c1ccc2c(c1)N(C(=O)C1Cc3cc(Cl)c(-c4ccccn4)cc3C1)CC2` (stereo not drawn) [Example 12], under “read-out: EC50-HSV2-FBS”, the EC50 stood at 5040 nM.

With `NS(=O)(=O)c1cc2c(cc1F)CCN2C(=O)C1Cc2cc(-c3ccccn3)cc(F)c2C1` (stereo not drawn) [Example 13], the EC50 was no less than 10000 nM under setting [1] and 250 nM (read-out: EC50-HSV2-FBS).

Consider `NS(=O)(=O)c1ccc2c(c1)N(C(=O)C1Cc3ccc(-c4cncc(F)n4)cc3C1)CC2` (stereo not drawn) [Example 18], for which the EC50 (read-out: EC50-HSV2-FBS) is 180 nM.

Turning to `NS(=O)(=O)c1ccc2c(c1)N(C(=O)C1Cc3ccc(-c4nccs4)cc3C1)CC2` (stereo not drawn) [Example 20], the EC50 (read-out: EC50-HSV2-FBS) is 91 nM.

Take `Cc1csc(-c2ccc3c(c2)CC(C(=O)N2CCc4ccc(S(N)(=O)=O)cc42)C3)n1` (stereo not drawn) [Example 22]: the EC50 (read-out: EC50-HSV2-FBS) was 48 nM.

On to `NS(=O)(=O)c1ccc2c(c1)N(C(=O)C1Cc3ccc(-c4ccsn4)cc3C1)CC2` (stereo not drawn) [Example 24], for which the EC50 reads like this: under setting [1], no less than 25000 nM; (read-out: EC50-HSV2-FBS) 19 nM.

Regarding `Cc1nc(-c2ccc3c(c2)CC(C(=O)N2CCc4ccc(S(N)(=O)=O)cc42)C3)cs1` (stereo not drawn) [Example 25], the EC50 under setting [1] is no less than 25000 nM and the EC50 (read-out: EC50-HSV2-FBS) stood at 32 nM.

For the compound `COc1nc(-c2ccc3c(c2)CC(C(=O)N2CCc4ccc(S(N)(=O)=O)cc42)C3)cs1` (stereo not drawn) [Example 26], the EC50 (read-out: EC50-HSV2-FBS) amounted to 131 nM.

On to `N#Cc1nc(-c2ccc3c(c2)CC(C(=O)N2CCc4ccc(S(N)(=O)=O)cc42)C3)cs1` (stereo not drawn) [Example 27], for which the EC50 (read-out: EC50-HSV2-FBS) was 383 nM.

As for `CS(=N)(=O)c1ccc2c(c1)N(C(=O)C1Cc3ccc(-c4ccccn4)cc3C1)CC2` (stereo not drawn) [Example 29, imino(methyl)(1-(5-(pyridin-2-yl)-2,3-dihydro-1H-indene-2-carbonyl)indolin-6-yl)-λ^6-sulfanone], the EC50 under setting [1] came to 3240 nM and the EC50 (read-out: EC50-HSV2-FBS) came to 193 nM.

With `C[S@@](=N)(=O)c1cc2c(cc1F)CCN2C(=O)[C@@H]1Cc2ccc(-c3ccccn3)cc2C1` [Example 40, (R)-(5-fluoro-1-((R)-5-(pyridin-2-yl)-2,3-dihydro-1H-indene-2-carbonyl)indolin-6-yl)(imino)(methyl)-16-sulfanone], the EC50 stood at 816 nM under setting [1] and 196 nM (read-out: EC50-HSV2-FBS).

For `C[C@@H]1Cc2cc(F)c(S(N)(=O)=O)cc2N1C(=O)[C@@H]1Cc2cc(-c3ccccn3)ccc2O1` [Example 43], the EC50 is, setting by setting: under setting [1], 9270 nM; (read-out: EC50-HSV2-FBS) 352 nM.

For `NS(=O)(=O)c1ccc2c(c1)N(C(=O)[C@@H]1Cc3ccc(-c4cc(F)ccc4F)cc3C1)CC2` [Example 45, (R)-1-(5-(2,5-difluorophenyl)-2,3-dihydro-1H-indene-2-carbonyl)indoline-6-sulfonamide], the EC50 is, setting by setting: under setting [1], no less than 10000 nM; (read-out: EC50-HSV2-FBS) 67 nM.

For `C[C@@H]1c2cc(F)c(S(N)(=O)=O)cc2N(C(=O)[C@@H]2Cc3ccc(-c4ccccn4)cc3C2)[C@H]1C` [Example 47, (2S,3R)-5-fluoro-2,3-dimethyl-1-((R)-5-(pyridin-2-yl)-2,3-dihydro-1H-indene-2-carbonyl)indoline-6-sulfonamide], the EC50 was found to be 3660 nM under setting [1] and 423 nM (read-out: EC50-HSV2-FBS).

On to `C[C@H]1c2cc(F)c(S(N)(=O)=O)cc2N(C(=O)[C@@H]2Cc3ccc(-c4ccccn4)cc3C2)[C@H]1C` [Example 49, (2S,3S)-5-fluoro-2,3-dimethyl-1-((R)-5-(pyridin-2-yl)-2,3-dihydro-1H-indene-2-carbonyl)indoline-6-sulfonamide], for which the EC50 reads like this: under setting [1], 1040 nM; (read-out: EC50-HSV2-FBS) 162 nM.

With `CS(=N)(=O)c1cc2c(cc1F)CCN2C(=O)[C@@H]1Cc2ccc(-c3cc(F)ccc3F)cc2C1` (stereo partly drawn) [Example 51, (1-((R)-5-(2,5-difluorophenyl)-2,3-dihydro-1H-indene-2-carbonyl)-5-fluoroindolin-6-yl)(imino)(methyl)-λ^6-sulfanone], the EC50 by setting is: under setting [1], 239 nM; (read-out: EC50-HSV2-FBS) 53 nM.

Regarding `C[S@@](=N)(=O)c1cc2c(cc1F)CCN2C(=O)[C@@H]1Cc2ccc(-c3cc(F)ccc3F)cc2C1` [Example 52], the concentration giving a half-maximal response (EC50) runs as follows: under setting [1], 2000 nM; (read-out: EC50-HSV2-FBS) 340 nM.

With `C[C@H]1Cc2ccc(S(N)(=O)=O)cc2N1C(=O)C1Cc2cc(-c3ccccn3)ccc2O1` (stereo partly drawn) [Example 56], the EC50 under setting [1] came out at 2220 nM and the EC50 (read-out: EC50-HSV2-FBS) came out at 255 nM.

For `C[C@H]1Cc2cc(Cl)c(S(N)(=O)=O)cc2N1C(=O)[C@@H]1Cc2ccc(-c3ccccn3)cc2C1` [Example 59, (S)-5-chloro-2-methyl-1-((R)-5-(pyridin-2-yl)-2,3-dihydro-1H-indene-2-carbonyl)indoline-6-sulfonamide], the EC50 under setting [1] is no less than 10000 nM and the EC50 (read-out: EC50-HSV2-FBS) came to 385 nM.

As to `NS(=O)(=O)c1ccc2c(c1)N(C(=O)C1Cc3ccc(-c4ccccc4)cc3C1)CC2` (stereo not drawn) [Example 69, 1-(5-phenyl-2,3-dihydro-1H-indene-2-carbonyl) indoline-6-sulfonamide], the EC50 reads like this: under setting [1], no less than 25000 nM; (read-out: EC50-HSV2-FBS) 119 nM.

Consider `NS(=O)(=O)c1ccc2c(c1)N(C(=O)C1Cc3ccc(-c4ccccn4)cc3C1)CC2` (stereo not drawn) [Example 71, 1-(5-(pyridin-2-yl)-2,3-dihydro-1H-indene-2-carbonyl) indoline-6-sulfonamide], for which the EC50 runs as follows: under setting [1], no less than 25000 nM; (read-out: EC50-HSV2-FBS) 30 nM.

Consider `COc1cncc(-c2ccc3c(c2)CC(C(=O)N2CCc4ccc(S(N)(=O)=O)cc42)C3)n1` (stereo not drawn) [Example 72], for which the EC50 reads like this: under setting [1], 12300 nM; (read-out: EC50-HSV2-FBS) 252 nM.

On to `COc1cccc(-c2ccc3c(c2)CC(C(=O)N2CCc4ccc(S(N)(=O)=O)cc42)C3)n1` (stereo not drawn) [Example 77], for which the EC50 by setting is: under setting [1], 10500 nM; (read-out: EC50-HSV2-FBS) 121 nM.

With `NS(=O)(=O)c1ccc2c(c1)N(C(=O)C1Cc3ccc(-n4cncn4)cc3C1)CC2` (stereo not drawn) [Example 79, 1-(5-(1H-1,2,4-triazol-1-yl)-2,3-dihydro-1H-indene-2-carbonyl)indoline-6-sulfonamide], the EC50 (read-out: EC50-HSV2-FBS) was found to be 2060 nM.

As to `NS(=O)(=O)c1ccc2c(c1)N(C(=O)[C@H]1Cc3ccc(-c4ccccn4)cc3C1)CC2` [Example 80, (S)-1-(5-(pyridin-2-yl)-2,3-dihydro-1H-indene-2-carbonyl)indoline-6-sulfonamide], the EC50 (read-out: EC50-HSV2-FBS) came to 409 nM.

As for `NS(=O)(=O)c1ccc2c(c1)N(C(=O)[C@H]1Cc3ccc(-c4ccccc4F)cc3C1)CC2` [Example 82, (S)-1-(5-(2-fluorophenyl)-2,3-dihydro-1H-indene-2-carbonyl)indoline-6-sulfonamide], the EC50 (read-out: EC50-HSV2-FBS) was determined as 8040 nM.

In the case of `NS(=O)(=O)c1ccc2c(c1)N(C(=O)[C@@H]1Cc3ccc(-c4ccccc4F)cc3C1)CC2` [Example 83, (R)-1-(5-(2-fluorophenyl)-2,3-dihydro-1H-indene-2-carbonyl)indoline-6-sulfonamide], the EC50 by setting is: under setting [1], no less than 25000 nM; (read-out: EC50-HSV2-FBS) 177 nM.

Regarding `CC1c2ccc(-c3ccccn3)cc2CC1C(=O)N1CCc2ccc(S(N)(=O)=O)cc21` (stereo not drawn) [Example 92], the 50% effective concentration (EC50) reads like this: under setting [1], 238 nM; (read-out: EC50-HSV2-FBS) 28 nM.
